{
  "source": "patent US20040063696A1",
  "about": "“1,1-dioxo-2h-1,2-benzothiazine-3-carboxamide derivatives,method for preparing same and pharmaceutical compositions comprising same” (priority 2000, published 2004)",
  "system": "aggrecan",
  "experiment": "Expression of aggrecan in articular chondrocytes treated with IL-1 (Northern blot)",
  "format": "cell-based",
  "conditions": "calf articular chondrocytes, compared with cultures treated with 10 ng/ml of IL-1",
  "method": "The expression of aggrecan was analysed by Northern blot. Total RNA of cultures of calf articular chondrocytes (CAC) cultured in DMEM+10% FCS and treated with different concentrations of the test compounds, in the presence of IL-1 (10 ng/ml), were extracted, 10 μg of the total RNA were fractionated by electrophoresis on a 1% agarose gel in the presence of an MOPS-formaldehyde buffer, transferred to a nylon membrane and hybridised with a specific aggrecan cDNA probe.",
  "data": [
    {"smiles": "CC[N+](C)(CC)CCCNC(=O)C1=C(O)c2ccccc2S(=O)(=O)N1C.[I-]", "note": "[Example 1, {3-[(4-Hydroxy-2-methyl-1,1-dioxo-2H-1,2-benzothiazin-3-yl)-carbonylamino]propyl}diethylmethylammonium iodide]", "values": [
      {"measurement": "stimulation of the expression of aggrecan", "setting": "10^−6 M", "result": 150, "unit": "%"},
      {"measurement": "stimulation of the expression of aggrecan", "setting": "10^−M (so in the source)", "result": 200, "unit": "%"}
    ]}
  ]
}
